From patent publication US6491950B1, “Controlled release pharmaceutical composition” (Kos Pharmaceuticals, Inc., priority 2000, dated 2002)
“Also recorded” adds a separate entry of the source. Structures can show the parent of a compound that is named as a salt.

Experiment: In vitro dissolution procedure, USP Basket Method (Apparatus I)
Type: physicochemical
Details: 24 hours; for release of medicament, dependence on amount of high melting glyceride: Example 1, FIG. 1, Compritol 888 15-30%, hydrochloride; for release of medicament, dependence on type of medicament: Example 6, FIG. 6, 20% medicament, Methocel E10 P 3%, polysorbate 80 1%; for release of medicament, dependence on amount of surfactant: Example 7, FIG. 7, polysorbate 80 2.5, 5.0, 10.0%
Description: The dissolution release of the formulations was determined by the USP Basket Method (Apparatus I). By this method, samples are tested in a 40 mesh basket rotating at 100 RPM. Release media were used in a volume of 900 ml per dissolution vessel, maintained at 37° C. Double distilled deionized water was generally used as the dissolution media. Some formulations were also evaluated in simulated gastric fluid (0.1N hydrochloric acid, pH=1.2, no enzyme added) or simulated intestinal fluid (0.05 M phosphate buffer, pH=7.4, no enzyme added). Nine samples of 3.0 ml each were automatically collected at 2, 4, 6, […], 12, 14, 20 and 24 hours. The absorbency of the samples were measured at the peak wavelength in the ultraviolet spectrum with Hewliet Packard model 8453 spectrophotometer. The absorbency values were converted to percentages of added medicament that was released.

Cn1c(=O)c2c(ncn2C)n(C)c1=O [caffeine]
release of medicament, dependence on cellulosic polymer (Example 9, FIG. 9, caffeine 20%, Methocel E10 P, Methocel K100M, Ethocel P20 or no polymer, olive oil): faster when the formulation contains Methocel K100M than Ethocel P20; also recorded: sustained over a 24 hour period

OCCOCCN1CCN(C(c2ccccc2)c2ccc(Cl)cc2)CC1 (stereo not shown) [hydroxyzine hydrochloride]
release of medicament, dependence on amount of high melting glyceride (hydroxyzine HCl 20%, soybean oil): moderately faster as the amount of higher fatty acid ester in the formulation is increased over a small range and then levels off | release of medicament, dependence on amount of high melting glyceride (hydroxyzine HCl 20%, soybean oil, listed as hydroxyzine HCl): consistent sustained release over 24 hours | release of medicament, dependence on type of oil (Example 2, FIG. 2, hydroxyzine HCl 20%, Compritol 888 25%, oil 51%): sustained at the same level over the period | release of medicament, dependence on type of high melting glyceride (Example 3, FIG. 3, hydroxyzine HCl 20%, glyceride 25%, soybean oil): fastest with Precirol AT05 slowest with Compritol 888/WL 2155, and intermediate with Compritol 888 | release of medicament, dependence on type of cellulosic polymer (Example 4, FIG. 4, hydroxyzine HCl 20%, polymer 3% (Methocel E10 P, K15M, A4M, Ethocel P20)): released considerably faster from a formulation of Methocel K15M than Ethocel P20 | release of medicament, dependence on type of medicament (Compritol 888 25%, soybean oil): released faster than niacin or caffeine

COCCc1ccc(OCC(O)CNC(C)C)cc1 (stereo not shown) [metoprolol tartrate]
release of medicament, dependence on type of medicament (Compritol 888 25%, soybean oil): released faster than niacin or caffeine | release of medicament, low hydroxypropyl ether celluloses (Example 11, FIG. 11, metoprolol tartrate 20%, LH 11, LH 22 or LH 30 3%, olive oil): sustained over a 24 hour period; also recorded: essentially the same for each cellulosic polymer of the formulation | release of medicament, dependence on amount of Compritol 888 (Example 12, FIG. 12, metoprolol tartrate 20%, Compritol 888 15-35%, olive oil): sustained over 24 hours; also recorded: higher at the higher amounts of compritol

O=C(O)c1cccnc1 [niacin]
release of medicament, dependence on amount of surfactant (niacin 20%, olive oil): faster the higher the level of the surfactant above a level of about 5.0% of the total amount of the formulation | release of medicament, dependence on amount of surfactant (niacin 20%, olive oil, listed as Niacin): sustained over 24 hours | release of medicament, with or without cellulosic polymer (Example 8, FIG. 8, niacin 20%, Methocel E10 P 3% or none, olive oil): released faster from a formulation containing Methocel E10P than from a formulation devoid of the cellulosic polymer
